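Following 48 hours of exposure in 96-well plates, responses at five concentrations were used to interpolate endpoints linearly. GI50 = concentration required for 50% inhibition of growth. TGI: concentration producing complete growth inhibition.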
How the values were obtained:
Test in all cases: NCI-60 cell line screen, 48 h
786-0 renal = tested on: 786-0 renal
A498 renal = tested on: A498 renal
A549 NSCLC = tested on: A549 NSCLC
ACHN renal = tested on: ACHN renal
BT-549 breast = tested on: BT-549 breast
CAKI-1 renal = tested on: CAKI-1 renal
CCRF-CEM leukemia = tested on: CCRF-CEM leukemia
COLO 205 colon = tested on: COLO 205 colon
DU-145 prostate = tested on: DU-145 prostate
HCC-2998 colon = tested on: HCC-2998 colon
HCT-116 colon = tested on: HCT-116 colon
HCT-15 colon = tested on: HCT-15 colon
HOP-62 NSCLC = tested on: HOP-62 NSCLC
HOP-92 NSCLC = tested on: HOP-92 NSCLC
HS 578T breast = tested on: HS 578T breast
HT29 colon = tested on: HT29 colon
IGROV1 ovarian = tested on: IGROV1 ovarian
K-562 leukemia = tested on: K-562 leukemia
KM12 colon = tested on: KM12 colon
LOX IMVI melanoma = tested on: LOX IMVI melanoma
MALME-3M melanoma = tested on: MALME-3M melanoma
MCF7 breast = tested on: MCF7 breast
MDA-MB-231 breast = tested on: MDA-MB-231 breast
MDA-MB-435 = tested on: MDA-MB-435
MOLT-4 leukemia = tested on: MOLT-4 leukemia
NCI-H226 lung = tested on: NCI-H226 lung
NCI-H23 lung = tested on: NCI-H23 lung
NCI-H460 lung = tested on: NCI-H460 lung
NCI-H522 lung = tested on: NCI-H522 lung
NCI/ADR-RES ovarian = tested on: NCI/ADR-RES ovarian
OVCAR-3 ovarian = tested on: OVCAR-3 ovarian
OVCAR-4 ovarian = tested on: OVCAR-4 ovarian
OVCAR-5 ovarian = tested on: OVCAR-5 ovarian
OVCAR-8 ovarian = tested on: OVCAR-8 ovarian
PC-3 prostate = tested on: PC-3 prostate
RPMI-8226 leukemia = tested on: RPMI-8226 leukemia
RXF 393 renal = tested on: RXF 393 renal
SF-268 CNS = tested on: SF-268 CNS
SF-295 CNS = tested on: SF-295 CNS
SF-539 CNS = tested on: SF-539 CNS
SK-MEL-2 melanoma = tested on: SK-MEL-2 melanoma
SK-MEL-28 melanoma = tested on: SK-MEL-28 melanoma
SK-MEL-5 melanoma = tested on: SK-MEL-5 melanoma
SK-OV-3 ovarian = tested on: SK-OV-3 ovarian
SN12C renal = tested on: SN12C renal
SNB-19 CNS = tested on: SNB-19 CNS
SNB-75 CNS = tested on: SNB-75 CNS
SR leukemia = tested on: SR leukemia
SW-620 colon = tested on: SW-620 colon
T-47D breast = tested on: T-47D breast
TK-10 renal = tested on: TK-10 renal
U251 CNS = tested on: U251 CNS
UACC-257 melanoma = tested on: UACC-257 melanoma
UACC-62 melanoma = tested on: UACC-62 melanoma
UO-31 renal = tested on: UO-31 renal

## Cc1cc(C)n(-c2nnc3n2N=C(c2ccc(-c4ccccc4)cc2)CS3)n1
786-0 renal
  GI50: 3.95 µM
  TGI: > 100 µM
A498 renal
  GI50: 2.03 µM
  TGI: 7.09 µM
A549 NSCLC
  GI50: 3.83 µM
  TGI: > 100 µM
ACHN renal
  GI50: 3.98 µM
  TGI: > 100 µM
BT-549 breast
  GI50: 3.69 µM
  TGI: > 100 µM
CAKI-1 renal
  GI50: 3.05 µM
  TGI: > 100 µM
CCRF-CEM leukemia
  GI50: 3.12 µM
  TGI: > 100 µM
COLO 205 colon
  GI50: 2.23 µM
  TGI: 4.77 µM
DU-145 prostate
  GI50: 3.82 µM
  TGI: > 100 µM
HCC-2998 colon
  GI50: 5.14 µM
  TGI: > 100 µM
HCT-116 colon
  GI50: 3.39 µM
  TGI: > 100 µM
HCT-15 colon
  GI50: 3.51 µM
  TGI: > 100 µM
HOP-62 NSCLC
  GI50: 6.17 µM
  TGI: > 100 µM
HOP-92 NSCLC
  GI50: 1.38 µM
  TGI: 5.13 µM
HS 578T breast
  GI50: 2.76 µM
  TGI: > 100 µM
HT29 colon
  GI50: 3.11 µM
  TGI: 12.1 µM
IGROV1 ovarian
  GI50: 4.81 µM
  TGI: > 100 µM
K-562 leukemia
  GI50: 3.58 µM
  TGI: > 100 µM
KM12 colon
  GI50: 3.49 µM
  TGI: > 100 µM
LOX IMVI melanoma
  GI50: 3.36 µM
  TGI: > 100 µM
MALME-3M melanoma
  GI50: 3.44 µM
  TGI: 17 µM
MCF7 breast
  GI50: 2.84 µM
  TGI: > 100 µM
MDA-MB-231 breast
  GI50: 3.22 µM
  TGI: > 100 µM
MDA-MB-435
  GI50: 1.71 µM
  TGI: 4.46 µM
MOLT-4 leukemia
  GI50: 3.66 µM
  TGI: > 100 µM
NCI-H226 lung
  GI50: 4.24 µM
  TGI: > 100 µM
NCI-H23 lung
  GI50: 4.79 µM
  TGI: > 100 µM
NCI-H460 lung
  GI50: 3.35 µM
  TGI: > 100 µM
NCI-H522 lung
  GI50: 2.95 µM
  TGI: 12.9 µM
NCI/ADR-RES ovarian
  GI50: 3.09 µM
  TGI: > 100 µM
OVCAR-3 ovarian
  GI50: 2.31 µM
  TGI: 5.55 µM
OVCAR-4 ovarian
  GI50: 4.12 µM
  TGI: > 100 µM
OVCAR-5 ovarian
  GI50: 5.3 µM
  TGI: > 100 µM
OVCAR-8 ovarian
  GI50: 3.51 µM
  TGI: > 100 µM
PC-3 prostate
  GI50: 3.15 µM
  TGI: > 100 µM
RPMI-8226 leukemia
  GI50: 3.18 µM
  TGI: > 100 µM
RXF 393 renal
  GI50: 2.08 µM
  TGI: 6.51 µM
SF-268 CNS
  GI50: 3.96 µM
  TGI: > 100 µM
SF-295 CNS
  GI50: 2.64 µM
  TGI: 7.63 µM
SF-539 CNS
  GI50: 2.15 µM
  TGI: 5.2 µM
SK-MEL-2 melanoma
  GI50: 2.58 µM
  TGI: 7.17 µM
SK-MEL-28 melanoma
  GI50: 3.33 µM
  TGI: > 100 µM
SK-MEL-5 melanoma
  GI50: 2.46 µM
  TGI: 5.88 µM
SK-OV-3 ovarian
  GI50: 3.79 µM
  TGI: > 100 µM
SN12C renal
  GI50: 3.92 µM
  TGI: > 100 µM
SNB-19 CNS
  GI50: 3.98 µM
  TGI: > 100 µM
SNB-75 CNS
  GI50: 3.24 µM
  TGI: 54.8 µM
SR leukemia
  GI50: 3.06 µM
  TGI: > 100 µM
SW-620 colon
  GI50: 3.41 µM
  TGI: > 100 µM
T-47D breast
  GI50: 4.05 µM
  TGI: > 100 µM
TK-10 renal
  GI50: 2.47 µM
  TGI: 42.2 µM
U251 CNS
  GI50: 3.4 µM
  TGI: > 100 µM
UACC-257 melanoma
  GI50: 4.99 µM
  TGI: > 100 µM
UACC-62 melanoma
  GI50: 2.49 µM
  TGI: 6.98 µM
UO-31 renal
  GI50: 3.38 µM
  TGI: > 100 µM

Source: PubChem BioAssay (NCI)
